Assay results: US20260315446A1, “ANTIFUNGAL COMPOUNDS AND USES THEREOF” (priority 2023, published 2026)

Tests used:
C. neoformans strain H99 = assay: Murine cryptococcal infection, brain fungal burden (Example 3); format: in vivo, Cryptococcus neoformans in A/J mice; details: 14 days; fluconazole 6 mg/kg, JH-FK-08 40 mg/kg, i.p. twice per day
Procedure: In vivo antifungal activity and therapeutic benefit were assayed by investigating the impact of the FK520 analog on organ fungal burden during cryptococcosis. Specifically, the in vivo efficacy of JH-FK-08 on fungal burden was assessed using A/J female mice. Immunodeficient A/J mice were selected in part due to their defect in complement component five and their susceptibility to cryptococcal infection. Treatment groups included vehicle of 10% Kolliphor: ethanol (1:1) in phosphate-buffered saline (PBS), 6 mg/kg fluconazole, 40 mg/kg JH-FK-08, or the fluconazole and JH-FK-08 combination, all given via intraperitoneal (i.p.) injection twice per day beginning at 4 hours post infection. […] Mice were intranasally infected with C. neoformans strain H99, and fungal burden in the lung, spleen, and brain was assessed after 14 days of treatment.
C. neoformans inoculum was prepared by growing a 5-mL overnight YPD culture spinning in a tissue culture roller drum at 30° C. Cells were pelleted by centrifugation and washed in sterile PBS three times. Cell density was determined by hemocytometer, and cells were diluted to 2×10^6 cells/mL. Mice (10 to 20 g) were infected with 10^5 cells of C. neoformans H99. […] Following inhalation of the inoculum, animals were monitored for post anesthesia recovery. […] Fungal burden was assessed 24 h after the final dose. […]

[1] = In vivo tolerability of JH-FK-08; set-up: species or system mouse (A/J); details: 40 mg/kg once daily, 14 days
Procedure: FIG. 14: In vivo tolerability of JH-FK-08. Maximum tolerated dose study of female A/J mice (n=3). Animals received once daily (A) and twice daily (B) dosing, and weight over time was plotted as percent change from initial body weight.
Based on the in vitro fungal and mammalian calcineurin inhibition data, the panel of FK520 analogs was assessed and ranked. Therapeutic index (TI) scores were used to quantify the effects of structural modification on the compounds (Table 8). Therapeutic index scores were calculated for each analog as the ratio of relative change in immunosuppressive and antifungal activities compared to FK506 as previously utilized (see, I-Toy M J, et at. 2022. mBio 13:e0104922). This ratio of therapeutic benefit and host toxicity, or fungal and mammalian calcineurin inhibition, allowed us to quantify and rank these analogs. […] This is the greatest TI found within the library and allowed us to identify JH-FK-08 as a lead candidate for an in vivo study. Tolerability of JH-FK-08 was assessed by monitoring animal responses to drug dosing across 14 days, including changes in weight, fur condition, and behavior. A maximum dose of 40 mg/kg was tested in once a day dosing, and due to solubility limitations, the tolerability of JH-FK-08 at 60 and 80 mg/kg total daily doses was assessed by dosing two equal doses per day (FIG. 14). […]

[2] = system: C. neoformans growth versus IL-2 in murine T cells; assay: Therapeutic index score (immunosuppressive fold change to antifungal fold change relative to FK506); set-up: species or system Cryptococcus neoformans; mouse; details: for Therapeutic Index Score: FK506 = 1.0
Outline: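 TIscore = ratio of immunosuppressive fold change (IL-2, murine T cells) to antifungal fold change (C. neoformans), both relative to FK506; values >1.0 denote greater fungal specificity. Derived from in vitro fungal versus mammalian calcineurin inhibition data.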

Structure (SMILES): CC[C@@H]1/C=C(\C)C[C@H](C)C[C@H](OC)[C@H]2O[C@@](O)(C(=O)C(=O)N3CCCC[C@H]3C(=O)O[C@H](/C(C)=C/C3CC[C@@H](O)[C@H](OC)C3)[C@H](C)[C@@H](O)C/C1=N/NC(=O)OC)[C@H](C)C[C@@H]2OC (stereo partly shown) [JH-FK-08]
- brain fungal burden (C. neoformans strain H99): no detectable fungal burden
- tolerability ([1]; 60 and 80 mg/kg total daily in two equal doses): Animals tolerated all dosages
- weight difference from vehicle-treated animals ([1]; 60 and 80 mg/kg total daily): ≤ 10%

Structure (SMILES): C=CC[C@@H]1/C=C(\C)C[C@H](C)C[C@H](OC)[C@H]2O[C@@](O)(C(=O)C(=O)N3CCCC[C@H]3C(=O)O[C@H](/C(C)=C/[C@@H]3CC[C@@H](O)[C@H](OC)C3)[C@H](C)[C@@H](O)C/C1=N/NC(=O)CC)[C@H](C)C[C@@H]2OC [JH-FK-02]
- therapeutic index score (TIscore) ([2]; Example 1, C. neoformans MIC and IL-2 IC50, FK506 = 1.0): 9.7

Structure (SMILES): C=CCC1C=C(C)CC(C)CC(OC)C2OC(O)(C(=O)C(=O)N3CCCCC3C(=O)OC(C(C)=CC3CCC(O)C(OC)C3)C(C)C(O)CC1=O)C(C)CC2OC (stereo not shown) [FK506, reference compound]
- Therapeutic index ([2]; Example 3, C. neoformans H99, FK506 = 1.0): 1.0
- Therapeutic Index Score ([2]; Table 12, Example 4): 1.0
- Therapeutic Index Score ([2]; Table 13, Example 4): 1.0
